Measured values as given in patent US12262712B2, “Oxime ether compound and application thereof” (SHENYANG SINOCHEM AGROCHEMICALS R&D CO., LTD., priority 2019, dated 2025).

Legend:
[1] = tested on: soybean rust; assay: In vivo pot determination, control effect on soybean rust; conditions: foliar spray
Method: (§1) An in vivo pot determination method was adopted, i.e., a sample of the compound to be tested was dissolved with a small amount of solvent (the type of the solvent may be, for example, acetone, methanol and DMF, and selected according to the capability to dissolve the sample; the volume ratio of the amount of the solvent to the amount of sprayed solution is equal to or less than 0.05), diluted with water containing 0.1% Tween 80 and formulated into a required concentration of solution to be tested. Foliar spray treatment was carried out with the compounds of the present invention at the designed concentrations. A blank control with clear water spray was set and repeated for three times. Disease inoculation was carried out on the second day after the treatment. After inoculation, the plants were placed in a phytotron for moisturizing cultivation (temperature: 25° C. on day, 20° C. at night, relative humidity 95-99%). […] After the control was fully diseased (generally one week), the control effects of the compounds were evaluated. For the result survey, A Manual of Assessment Keys for Plant Diseases compiled by American Phytopathological Society can be referred to, which uses 100-0 for representation. “100” level represents no disease and “0” level represents the most severe disease degree.

[2] = tested on: cucumber downy mildew; assay: In vivo pot determination, control effect on cucumber downy mildew; conditions: 400 ppm, foliar spray, parallel comparison (Table 4)
Method: as §1

[3] = tested on: bacterial spot of cucumber (Pseudomonas syringae pv. lachrymans); assay: Field trial, control of bacterial spot of cucumber; type: in vivo; conditions: whole plant spray three times at 7 day interval, investigated 7 days after last delivery
Method: Compounds 47 and 97 were selected from the above compounds for field trial to control bacterial spot of cucumber (Pseudomonas syringae pv. lachrymans). The treatment dose of the test drug was 400 mg/L, and the treatment dose of a control drug CK2 was 700 mg/L. The test drug and the control drug were arranged in random blocks; the plot area was 15 m^2; and repetition was conducted for 3 times. The drug delivery mode was the whole plant spray. Drug delivery was conducted for three times, with an interval of 7 days, and control effect investigation was carried out 7 days after the last drug delivery. During investigation, 5 points in each plot were sampled; all leaves were investigated; and disease indexes and control effects were calculated according to the percentage level of diseased spot area of each leaf in the whole leaf area.

[4] = tested on: soft rot of Chinese cabbage; assay: Control effect on soft rot of Chinese cabbage (leaf piece, spray, needle wound inoculation); type: in vivo, soft rot bacteria of Chinese cabbage; conditions: 400 mg/L, sprayed on leaf, 48 hours in the dark
Source text: (§2) The compounds of the present invention are used to determine the control effect on various plant bacterial diseases. For different bacterial diseases, the test procedures are as follows:
Soft rot of Chinese cabbage: 2 cm of square Chinese cabbage leaf is cut and placed in a glass petri dish lined with double-layer filter paper. A compound dissolved in N,N dimethylformamide and diluted with water to a required concentration is sprayed onto the surface of the Chinese cabbage leaf. After the medicinal liquid on the surface of the Chinese cabbage leaf is dried in a fume hood, the surface of the Chinese cabbage leaf is acupunctured by using an inoculating needle to cause a wound. […] of soft rot bacteria of Chinese cabbage cultured to a stable growth period is added to the wound for inoculation. Finally, the test materials are placed in an incubator and cultured for 48 hours in the dark; and the control effect is investigated after full onset of diseases through control.

[5] = tested on: melon bacterial fruit blotch; assay: Control effect on melon bacterial fruit blotch (seed soak, greenhouse); type: in vivo; conditions: 400 mg/L, seeds soaked in bacteria plus compound solution
Method: as §2
Melon bacterial fruit blotch: the compound to be tested is dissolved with a small amount of N,N dimethylformamide and diluted with water to the required concentration. The pathogenic bacteria cultured to a stable growth stage is evenly mixed with a quantitative compound solution; the germinated melon seeds are soaked in the mixed solution of a bacteria solution and the compound for half an hour; then, the seeds are sown in an earthworm soil culture cup and put into a greenhouse for moisturizing cultivation for two weeks generally; and the control effect is investigated after full onset of diseases through control.

Row | SMILES | control effects on soft rot of Chinese cabbage [4] | control effects on melon bacterial fruit blotch [5] | further results
1 | N#CC(C#N)=NOCc1cnc(Cl)s1 [CK1, reference compound] |  |  | Control Effects on Soybean Rust (%) ([1]; 100 ppm): 0%; Control Effects on Soybean Rust (%) ([1]; 200 ppm): 0%; Control Effects on Cucumber Downy Mildew (%) [2]: 0%
2 | N#CC(C#N)=NOCc1csc(-c2ccccc2)n1 [CK2, reference compound] |  |  | Control Effects on Cucumber Downy Mildew (%) [2]: 0%; Control Effect (%) ([3]; active ingredient dose 700 mg/L): 76.89%
3 | N#CC(C#N)=NOCc1csc(-c2ccc(Cl)cc2)n1 [CK3, reference compound] |  |  | Control Effects on Cucumber Downy Mildew (%) [2]: 0%
4 | N#CC(C#N)=NOCc1csc(NC(=O)c2ccc(Cl)cc2)n1 [Compound 4] | 100% | 100% | 
5 | N#CC(C#N)=NOCc1csc(NC(=O)c2ccccc2F)n1 [Compound 5] | 100% | 100% | 
6 | N#CC(C#N)=NOCc1csc(NC(=O)c2cccc(F)c2)n1 [Compound 6] | 100% | 100% | 
7 | N#CC(C#N)=NOCc1csc(NC(=O)c2ccc(Br)cc2)n1 [Compound 10] |  |  | Control Effects on Soybean Rust (%) ([1]; 100 ppm): 100%; Control Effects on Soybean Rust (%) ([1]; 200 ppm): 100%
8 | N#CC(C#N)=NOCc1csc(NC(=O)c2ccccc2C(F)(F)F)n1 [Compound 20] | 100% | 100% | Control Effects on Cucumber Downy Mildew (%) [2]: 100%
9 | N#CC(C#N)=NOCc1csc(NC(=O)c2ccc(C(F)(F)F)cc2)n1 [Compound 22] | 100% | 100% | 
10 | N#CC(C#N)=NOCc1csc(NC(=O)c2ccccc2OC(F)(F)F)n1 [Compound 23] | 100% | 100% | Control Effects on Soybean Rust (%) ([1]; 100 ppm): 100%; Control Effects on Soybean Rust (%) ([1]; 200 ppm): 100%
11 | N#CC(C#N)=NOCc1csc(NC(=O)c2ccc(Cl)cc2Cl)n1 [Compound 34] | 100% | 100% | 
12 | N#CC(C#N)=NOCc1csc(NC(=O)c2ccc(Cl)c(Cl)c2)n1 [Compound 36] | 100% | 100% | 
13 | N#CC(C#N)=NOCc1csc(NC(=O)c2ccc([N+](=O)[O-])c(F)c2)n1 [Compound 45] | 100% | 100% | Control Effects on Cucumber Downy Mildew (%) [2]: 100%
14 | N#CC(C#N)=NOCc1csc(N)n1 [Compound 47, ((2-aminothiazole-4-yl)methoxy)iminoimide dicyanide] | 100% | 100% | Control Effects on Soybean Rust (%) ([1]; 100 ppm): 85%; Control Effects on Soybean Rust (%) ([1]; 200 ppm): 100%; Control Effect (%) ([3]; active ingredient dose 400 mg/L): 77.00%
15 | N#CC(C#N)=NOCc1csc(NC(=O)c2cccnc2)n1 [Compound 65] | 100% | 100% | 
16 | N#CC(C#N)=NOCc1csc(NC(=O)c2ccc(F)c(C(F)(F)F)c2)n1 [Compound 74] | 100% | 100% | 

Row | SMILES | control effects on soft rot of Chinese cabbage [4] | control effects on melon bacterial fruit blotch [5] | further results
17 | N#CC(C#N)=NOCc1csc(NC(=O)c2ccc(F)cc2F)n1 [Compound 86] | 100% | 100% | 
18 | N#CC(C#N)=NOCc1csc(NC(=O)c2ccc(F)c(F)c2)n1 [Compound 87] | 100% | 100% | 
19 | N#CC(C#N)=NOCc1csc(NC(=O)c2ccccc2)n1 [Compound 95] | 100% | 100% | 
20 | CC=CC(=O)Nc1nc(CON=C(C#N)C#N)cs1 [Compound 117] | 100% | 100% | Control Effects on Cucumber Downy Mildew (%) [2]: 100%
21 | CCC(=O)Nc1nc(CON=C(C#N)C#N)cs1 [Compound 118] | 100% | 100% | 
22 | N#CC(C#N)=NOCc1csc(NC(=O)C(F)(F)F)n1 [Compound 119] | 100% | 100% | 
23 | CC(C)(C)OC(=O)Nc1nc(CON=C(C#N)C#N)cs1 [Compound 123] | 100% | 100% | 
24 | N#CC(=NOCc1csc(NC(=O)c2ccccc2Cl)n1)C(N)=O [Compound 134] | 100% | 100% | 
25 | N#CC(=NOCc1csc(N)n1)C(N)=O [Compound 179] | 100% | 100% | Control Effects on Soybean Rust (%) ([1]; 100 ppm): 80%; Control Effects on Soybean Rust (%) ([1]; 200 ppm): 100%
26 | Cc1ccc(S(=O)(=O)Nc2nc(CON=C(C#N)C(N)=O)cs2)cc1 [Compound 228] | 100% | 100% | 
27 | CC(C)(C)OC(=O)Nc1nc(CON=C(C#N)C(N)=O)cs1 [Compound 253] | 100% | 100% | 
28 | CC(=NNc1nc(CON=C(C#N)C#N)cs1)c1ccc(F)cc1 [Compound 361] | 100% | 100% | 
29 | CCc1ccc(C(=O)Nc2nc(CON=C(C#N)C#N)cs2)cc1 [Compound 365] |  |  | Control Effects on Soybean Rust (%) ([1]; 100 ppm): 100%; Control Effects on Soybean Rust (%) ([1]; 200 ppm): 100%
30 | N#CC(C#N)=NOCc1csc(NC(=O)c2ccc3c(c2)OC(F)(F)O3)n1 [Compound 366] | 100% | 100% | 
31 | N#CC(C#N)=NOCc1csc(NN=C(c2ccc(Cl)cc2)c2ccc(Cl)cc2)n1 [Compound 367] | 100% | 100% | 
